Measurements taken from ChEMBL document CHEMBL1151316, “Pyrrolizidine alkaloids from Heliotropium megalanthum” (J Nat Prod, 1998).

Tests used:
[1] = test system: Leptinotarsa decemlineata; experiment: Antifeedant activity in Leptinotarsa decemlineata assessed as reduction of feeding by choice test; assay type: functional, organism-based
[2] = test system: Leptinotarsa decemlineata; experiment: Antifeedant activity in Leptinotarsa decemlineata assessed as reduction of feeding by no-choice test; assay type: functional, organism-based
[3] = test system: Leptinotarsa decemlineata; experiment: Insecticidal activity against haemolymph dosed Leptinotarsa decemlineata assessed as increase in mortality after 2 days; assay type: functional
Spodoptera littoralis [4] = experiment: Antifeedant activity in Spodoptera littoralis L6 larvae assessed as reduction of feeding at 5 ug/cm2 by choice test; assay type: functional; set-up: scale not given: the % may be the effect or the level left
Spodoptera littoralis [5] = experiment: Antifeedant activity in Spodoptera littoralis L6 larvae assessed as reduction of feeding at 100 ug/cm2 by choice test; assay type: functional; set-up: scale not given: the % may be the effect or the level left
Spodoptera littoralis [6] = experiment: Antifeedant activity in Spodoptera littoralis L6 larvae assessed as reduction of feeding by choice test; assay type: functional, organism-based
[7] = test system: Leptinotarsa decemlineata; experiment: Antifeedant activity in Leptinotarsa decemlineata assessed as reduction of feeding at 100 ug/cm2 by choice test; assay type: functional; set-up: scale not given: the % may be the effect or the level left
[8] = test system: Leptinotarsa decemlineata; experiment: Antifeedant activity in Leptinotarsa decemlineata assessed as reduction of feeding at 100 ug/cm2 by no-choice test; assay type: functional; set-up: scale not given: the % may be the effect or the level left
Spodoptera littoralis [9] = experiment: Insecticidal activity against orally dosed Spodoptera littoralis L6 larvae assessed as relative consumption rate after 72 hrs; assay type: functional
Spodoptera littoralis [10] = experiment: Insecticidal activity against orally dosed Spodoptera littoralis L6 larvae assessed as relative growth rate after 72 hrs; assay type: functional

Q: Which EC50 [1] does the source give for `CC(=O)O[C@H](C)[C@](O)(C(=O)OC[C@@H]1CCN2CCC[C@@H]12)C(C)C` here?
A: The EC50 was 1.79 microg/cm2.

Q: What about the EC50 [2] of the same compound?
A: Its EC50 is 2.92 microg/cm2.

Q: And the Activity [3]?
A: Its Activity is 5%.

Q: Which Activity (Spodoptera littoralis [4]) does the source give for `CO[C@@H](C)[C@](O)(C(=O)OCC1=CCN2CC[C@H](O)[C@@H]12)C(C)(C)O` [EUROPINE] here?
A: Its Activity is 67%.

Q: Which Activity (Spodoptera littoralis [5]) does the source give for `CC(C)[C@](O)(C(=O)OCC1=CCN2CC[C@@H](O)[C@@H]12)[C@@H](C)O` [LYCOPSAMINE] here?
A: The Activity was 61.08%.

Q: And the EC50 (Spodoptera littoralis [6])?
A: Its EC50 is 31.62 microg/cm2.

Q: What about the Activity [7] of the same compound?
A: Its Activity is 27.53%.

Q: And the Activity [8]?
A: The Activity was 68.4%.

Q: What about the EC50 [2] of the same compound?
A: Its EC50 is 25.97 microg/cm2.

Q: And the Activity (Spodoptera littoralis [9])?
A: The Activity was 21.19 mg.

Q: What about the Activity (Spodoptera littoralis [10]) of the same compound?
A: The Activity was 3.32 mg.

Q: And the Activity [3]?
A: The Activity was 12%.

Q: For `CC(C)[C@@](O)(C(=O)OC[C@H]1CCN2CC[C@@H](O)[C@@H]12)[C@H](C)O` [MEGALANTHONINE], which Activity [3] is on record?
A: Its Activity is 10%.
